# Measured values from paper PMC6429200, “Synthesis and Broad Antiviral Activity of Novel 2-aryl-isoindolin-1-ones towards Diverse Enterovirus A71 Clinical Isolates” (Molecules, 2019).
# Key:
# [1] = system: EV-A71 (H strain) VP1 protein; assay: Western blot of viral VP1 protein in infected Vero cells; format: cell-based, Enterovirus 71 (EV-A71); settings: H strain MOI = 0.1, 1 h infection then A3 for 24 h
# Method: To further confirm the anti-EV-A71 activity, the expression levels of VP1 RNA and protein were determined. Vero cells were infected with the H strain of EV-A71 for 1 h followed by treatment with A3 of various concentrations for another 24 h. […] Meanwhile, the antiviral efficacy of A3 was also tested using viral titer reduction assays.
# Vero cells (9 × 10^5 cells/well) were plated into 6-well culture plates for incubation for 16 h. The medium was removed and cells were infected with EV-A71 (H, MOI = 0.1). After 1 h, various concentrations of A3 were supplemented for incubation for another 24 h. The cells were lysed in the M-PER mammalian protein extraction reagent (Thermo, Rockford, IL, USA) containing halt protease inhibitor single-use cocktail (Thermo). The protein concentration was determined by the BCA reagents (Thermo). About 15 μg of proteins was denatured and applied to sodium dodecyl sulfate-polyacrylamide gel electrophoresis (SDS-PAGE). The electrophoresis products were transferred to a polyvinyl idenefluoride (PVDF) film and PVDF membranes were then incubated at room temperature with a specific primary antibody. […]
# Figure 2 Compound A3 inhibited EV-A71 replication in vitro. […] Intracellular viral VP1 protein (A) and RNA (B) were determined by Western blot and qRT-PCR assays, respectively. […]
# EV-A71 = assay: Time-of-addition assay (VP1 Western blot) in Vero cells; format: cell-based, Enterovirus 71 (EV-A71)
# Method: In order to explore the inhibitory effect of compound A3 on the EV-A71 viral life cycle, EV-A71 viral protein VP1 was measured via Western blot when Vero cells were treated with compound A3 prior to, during, or after EV-A71 viral incubation (Figure 3). […] It is likely that compound A3 inhibits the EV-A71 replication by acting on the virus entry stage.
# The antiviral activity of the tested compound was examined at different time periods prior to, during or after viral infection. Briefly, Vero cells (9 × 10^5 cells/well) were inoculated with EV-A71 (MOI = 1.0) at 37 °C for 1 h. The media with or without treatment were added during the periods of −24~0 h, −1~0 h, 0~10 h, 1~10 h, 2~10 h, 4~10 h, 6~10 h and 8~10 h. After each incubation period, the collected cells were washed with PBS, and then the viral protein was determined by Western blot.
# Figure 3 Time-of-addition analysis of Vero cells with compound A3 treatment prior to, during or after EV-A71 infection. (A) Schematic illustration of experiment to determine which stage of EV-A71 viral cycle was inhibited by compound A3 in Vero cells. […] For all experiments, the collected cells were washed with PBS after 10 h post viral infection, and viral VP1 expression was determined via Western blot assay.
smiles,measurement,setting,value
"O=C1c2ccccc2CN1c1ccc(Cl)cc1 [Compound A3, 2-(4-chlorophenyl)isoindolin-1-one]",viral VP1 protein level,[1],decreased the levels of viral VP1 protein in a dose-dependent manner
same,EV-A71 VP1 expression in Vero cells,"EV-A71; A3 4 μM at 0, 1 and 2 h after infection (MOI = 1.0), cells collected 10 h post infection, not at the other time periods",significantly decreased
same,time-of-addition: effect of pretreatment,EV-A71; A3 added 24 or 1 h prior to infection,did not display any resistance to infection by EV-A71
same,"time-of-addition: efficacy, addition after infection",EV-A71; A3 added at 1 or 2 h after EV-A71 infection,significant efficacy
same,"time-of-addition: inhibitory activity, addition during inoculation",EV-A71; A3 added during the inoculation of the virus,maximum inhibitory activity
